The kinase profiling compilation of Christmann-Franck et al. (2016)

Assays:
Conditions in all cases: compound 10.0 µM
[1] = molecular target: EPHB1 (human) (UniProt P54762)
[2] = molecular target: MAP3K1 (human) (UniProt Q13233)
[3] = molecular target: TLK2 (human) (UniProt Q86UE8)
[4] = molecular target: TTK (human) (UniProt P33981)
[5] = molecular target: RPS6KA3 KD1 (human) (UniProt P51812)
[6] = molecular target: BLK (human) (UniProt P51451)
[7] = molecular target: PAK4 (human) (UniProt O96013)
[8] = molecular target: NEK3 (human) (UniProt P51956)
[9] = molecular target: SBK1 (human) (UniProt Q52WX2)
[10] = molecular target: MAPK13 (human) (UniProt O15264)
[11] = molecular target: CDC42BPB (human) (UniProt Q9Y5S2)
[12] = molecular target: INSRR (human) (UniProt P14616)
[13] = molecular target: RPS6KA6 KD2 (human) (UniProt Q9UK32)
[14] = molecular target: STK24 (human) (UniProt Q9Y6E0)
[15] = molecular target: DDR1 (human) (UniProt Q08345)
[16] = molecular target: ACVR1B (human) (UniProt P36896)
[17] = molecular target: NEK6 (human) (UniProt Q9HC98)
[18] = molecular target: MYLK2 (human) (UniProt Q9H1R3)
[19] = molecular target: MAPK6 (human) (UniProt Q16659)
[20] = molecular target: CASK (human) (UniProt O14936)
[21] = molecular target: EPHB6 (human) (UniProt O15197)
[22] = molecular target: DYRK1A (human) (UniProt Q13627)
[23] = molecular target: PDGFRA (human) (UniProt P16234)
[24] = molecular target: RPS6KA4 KD2 (human) (UniProt O75676)
[25] = molecular target: BMPR1B (human) (UniProt O00238)
[26] = molecular target: MYLK4 (human) (UniProt Q86YV6)
[27] = molecular target: PRKACA (human) (UniProt P17612)
[28] = molecular target: MAPK12 (human) (UniProt P53778)
[29] = molecular target: ULK3 (human) (UniProt Q6PHR2)
[30] = molecular target: EPHA2 (human) (UniProt P29317)
[31] = molecular target: IKBKE (human) (UniProt Q14164)
[32] = molecular target: DAPK1 (human) (UniProt P53355)
[33] = molecular target: SRPK3 (human) (UniProt Q9UPE1)
[34] = molecular target: NEK2 (human) (UniProt P51955)
[35] = molecular target: IRAK4 (human) (UniProt Q9NWZ3)
[36] = molecular target: MAP3K12 (human) (UniProt Q12852)
[37] = molecular target: MKNK2 (human) (UniProt Q9HBH9)
[38] = molecular target: MARK3 (human) (UniProt P27448)
[39] = molecular target: EPHA5 (human) (UniProt P54756)
[40] = molecular target: NEK7 (human) (UniProt Q8TDX7)
[41] = system: KIT (human), P10721 [V559D]

Sequence of IKBKE (human) (Q14164 whole entry, looked up): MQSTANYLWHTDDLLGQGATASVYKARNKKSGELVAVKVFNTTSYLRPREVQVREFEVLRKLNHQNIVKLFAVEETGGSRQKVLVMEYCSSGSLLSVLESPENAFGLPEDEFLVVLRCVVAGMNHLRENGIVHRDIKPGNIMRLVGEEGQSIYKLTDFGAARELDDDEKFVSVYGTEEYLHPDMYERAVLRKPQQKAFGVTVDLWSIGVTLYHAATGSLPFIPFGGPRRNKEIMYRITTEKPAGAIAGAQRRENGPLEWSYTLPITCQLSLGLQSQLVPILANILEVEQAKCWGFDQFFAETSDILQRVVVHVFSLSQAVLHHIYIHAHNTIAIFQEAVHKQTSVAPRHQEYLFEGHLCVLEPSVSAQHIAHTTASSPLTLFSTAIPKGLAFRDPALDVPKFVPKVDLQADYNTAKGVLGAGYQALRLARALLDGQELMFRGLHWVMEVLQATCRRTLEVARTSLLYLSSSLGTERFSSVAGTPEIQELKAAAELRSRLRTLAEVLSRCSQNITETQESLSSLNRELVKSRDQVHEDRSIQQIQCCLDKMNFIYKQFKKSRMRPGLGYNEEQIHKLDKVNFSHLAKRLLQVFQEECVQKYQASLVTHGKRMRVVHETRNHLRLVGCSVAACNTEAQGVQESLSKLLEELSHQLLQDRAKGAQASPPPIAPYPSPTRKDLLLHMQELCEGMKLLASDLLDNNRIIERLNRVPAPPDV
Sequence of RPS6KA4 KD2 (human) (O75676 whole entry, looked up): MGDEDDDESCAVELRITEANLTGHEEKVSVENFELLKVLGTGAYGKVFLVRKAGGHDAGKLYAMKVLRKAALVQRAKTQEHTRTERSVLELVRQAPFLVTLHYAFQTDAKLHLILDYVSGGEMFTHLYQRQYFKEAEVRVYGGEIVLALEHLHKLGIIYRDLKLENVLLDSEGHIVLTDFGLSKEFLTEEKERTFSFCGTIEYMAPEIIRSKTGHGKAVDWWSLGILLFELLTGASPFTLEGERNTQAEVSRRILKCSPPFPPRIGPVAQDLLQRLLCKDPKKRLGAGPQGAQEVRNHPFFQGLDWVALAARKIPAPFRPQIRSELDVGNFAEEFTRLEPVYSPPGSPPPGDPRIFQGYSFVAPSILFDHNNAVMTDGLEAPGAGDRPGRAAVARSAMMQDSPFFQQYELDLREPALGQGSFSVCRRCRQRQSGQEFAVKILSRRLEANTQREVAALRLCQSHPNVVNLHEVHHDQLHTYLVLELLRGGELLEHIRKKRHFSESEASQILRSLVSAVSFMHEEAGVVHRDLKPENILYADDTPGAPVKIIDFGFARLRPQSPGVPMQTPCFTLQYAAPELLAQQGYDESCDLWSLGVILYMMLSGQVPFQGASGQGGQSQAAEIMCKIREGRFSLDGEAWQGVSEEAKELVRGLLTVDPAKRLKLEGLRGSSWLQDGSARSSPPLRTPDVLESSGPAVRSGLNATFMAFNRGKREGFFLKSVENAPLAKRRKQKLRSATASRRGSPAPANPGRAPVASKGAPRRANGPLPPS
Sequence of SRPK3 (human) (Q9UPE1 whole entry, looked up): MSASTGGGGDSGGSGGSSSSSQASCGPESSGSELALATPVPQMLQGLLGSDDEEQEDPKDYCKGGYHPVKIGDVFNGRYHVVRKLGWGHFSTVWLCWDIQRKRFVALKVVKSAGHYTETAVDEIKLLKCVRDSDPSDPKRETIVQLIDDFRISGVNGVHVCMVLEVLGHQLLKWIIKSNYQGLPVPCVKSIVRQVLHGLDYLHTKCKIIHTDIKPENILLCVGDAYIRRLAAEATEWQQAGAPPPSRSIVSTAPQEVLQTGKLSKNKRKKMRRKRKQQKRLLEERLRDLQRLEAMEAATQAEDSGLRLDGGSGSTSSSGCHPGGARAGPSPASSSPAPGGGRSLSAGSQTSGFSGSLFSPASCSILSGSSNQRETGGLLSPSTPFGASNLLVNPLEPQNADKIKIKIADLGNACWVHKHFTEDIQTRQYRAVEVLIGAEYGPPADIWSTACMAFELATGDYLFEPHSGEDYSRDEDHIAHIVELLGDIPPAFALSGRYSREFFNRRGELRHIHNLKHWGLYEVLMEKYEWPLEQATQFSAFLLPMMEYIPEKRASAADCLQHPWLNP
Sequence of MKNK2 (human) (Q9HBH9 whole entry, looked up): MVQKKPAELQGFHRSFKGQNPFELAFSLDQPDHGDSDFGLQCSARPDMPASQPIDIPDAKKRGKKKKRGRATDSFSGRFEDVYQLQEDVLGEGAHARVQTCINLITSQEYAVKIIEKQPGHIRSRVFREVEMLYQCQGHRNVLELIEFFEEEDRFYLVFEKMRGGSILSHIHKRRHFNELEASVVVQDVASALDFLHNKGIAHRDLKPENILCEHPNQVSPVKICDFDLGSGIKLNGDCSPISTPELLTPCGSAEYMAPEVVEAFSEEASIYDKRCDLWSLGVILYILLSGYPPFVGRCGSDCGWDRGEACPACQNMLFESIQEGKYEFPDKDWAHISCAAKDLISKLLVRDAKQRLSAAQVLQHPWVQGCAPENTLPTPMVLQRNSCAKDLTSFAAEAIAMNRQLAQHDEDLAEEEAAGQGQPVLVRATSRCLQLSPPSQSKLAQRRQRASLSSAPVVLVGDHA
Sequence of MYLK2 (human) (Q9H1R3 whole entry, looked up): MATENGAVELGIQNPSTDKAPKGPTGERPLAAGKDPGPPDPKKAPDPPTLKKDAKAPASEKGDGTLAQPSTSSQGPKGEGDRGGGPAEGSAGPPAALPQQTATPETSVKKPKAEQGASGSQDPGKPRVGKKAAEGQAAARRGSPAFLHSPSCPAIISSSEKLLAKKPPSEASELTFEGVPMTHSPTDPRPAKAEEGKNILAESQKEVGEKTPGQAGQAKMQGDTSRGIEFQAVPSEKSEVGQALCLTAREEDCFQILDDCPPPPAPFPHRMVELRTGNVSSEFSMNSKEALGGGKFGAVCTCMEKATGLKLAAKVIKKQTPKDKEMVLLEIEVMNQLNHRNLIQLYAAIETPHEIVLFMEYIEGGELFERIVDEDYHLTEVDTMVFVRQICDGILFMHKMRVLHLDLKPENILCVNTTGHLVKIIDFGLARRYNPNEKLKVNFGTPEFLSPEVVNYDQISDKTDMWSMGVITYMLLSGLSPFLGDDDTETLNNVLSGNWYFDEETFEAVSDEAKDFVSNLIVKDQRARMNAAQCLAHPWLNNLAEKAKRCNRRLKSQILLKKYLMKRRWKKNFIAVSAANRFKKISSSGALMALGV
Sequence of MARK3 (human) (P27448 whole entry, looked up): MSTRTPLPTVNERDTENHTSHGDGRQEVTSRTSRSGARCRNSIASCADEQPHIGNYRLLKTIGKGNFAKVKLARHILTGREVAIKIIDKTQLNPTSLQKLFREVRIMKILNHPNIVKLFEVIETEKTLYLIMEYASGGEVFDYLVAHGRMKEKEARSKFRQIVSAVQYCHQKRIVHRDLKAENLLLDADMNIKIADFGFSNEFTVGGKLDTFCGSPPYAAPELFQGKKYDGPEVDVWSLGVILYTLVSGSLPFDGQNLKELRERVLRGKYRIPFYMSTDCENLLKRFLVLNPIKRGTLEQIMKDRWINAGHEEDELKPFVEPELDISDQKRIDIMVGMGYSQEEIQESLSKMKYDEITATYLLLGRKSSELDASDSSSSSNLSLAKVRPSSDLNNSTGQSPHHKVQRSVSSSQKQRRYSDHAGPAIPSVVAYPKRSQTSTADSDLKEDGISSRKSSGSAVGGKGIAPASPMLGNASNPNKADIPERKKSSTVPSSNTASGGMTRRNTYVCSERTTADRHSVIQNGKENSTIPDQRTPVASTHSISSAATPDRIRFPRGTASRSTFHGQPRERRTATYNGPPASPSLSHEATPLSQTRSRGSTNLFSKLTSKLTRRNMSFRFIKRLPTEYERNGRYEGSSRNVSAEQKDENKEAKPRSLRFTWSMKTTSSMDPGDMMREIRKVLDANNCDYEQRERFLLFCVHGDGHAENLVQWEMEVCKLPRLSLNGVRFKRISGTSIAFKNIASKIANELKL
Sequence of NEK6 (human) (Q9HC98 whole entry, looked up): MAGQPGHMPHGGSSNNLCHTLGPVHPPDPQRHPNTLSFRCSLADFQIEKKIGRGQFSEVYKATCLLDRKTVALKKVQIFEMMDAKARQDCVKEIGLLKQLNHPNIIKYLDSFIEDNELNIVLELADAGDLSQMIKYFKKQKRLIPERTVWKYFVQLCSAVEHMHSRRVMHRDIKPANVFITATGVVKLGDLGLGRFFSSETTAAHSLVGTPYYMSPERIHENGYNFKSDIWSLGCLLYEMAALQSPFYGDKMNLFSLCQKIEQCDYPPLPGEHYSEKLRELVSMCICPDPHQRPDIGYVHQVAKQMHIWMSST
Sequence of TTK (human) (P33981 whole entry, looked up): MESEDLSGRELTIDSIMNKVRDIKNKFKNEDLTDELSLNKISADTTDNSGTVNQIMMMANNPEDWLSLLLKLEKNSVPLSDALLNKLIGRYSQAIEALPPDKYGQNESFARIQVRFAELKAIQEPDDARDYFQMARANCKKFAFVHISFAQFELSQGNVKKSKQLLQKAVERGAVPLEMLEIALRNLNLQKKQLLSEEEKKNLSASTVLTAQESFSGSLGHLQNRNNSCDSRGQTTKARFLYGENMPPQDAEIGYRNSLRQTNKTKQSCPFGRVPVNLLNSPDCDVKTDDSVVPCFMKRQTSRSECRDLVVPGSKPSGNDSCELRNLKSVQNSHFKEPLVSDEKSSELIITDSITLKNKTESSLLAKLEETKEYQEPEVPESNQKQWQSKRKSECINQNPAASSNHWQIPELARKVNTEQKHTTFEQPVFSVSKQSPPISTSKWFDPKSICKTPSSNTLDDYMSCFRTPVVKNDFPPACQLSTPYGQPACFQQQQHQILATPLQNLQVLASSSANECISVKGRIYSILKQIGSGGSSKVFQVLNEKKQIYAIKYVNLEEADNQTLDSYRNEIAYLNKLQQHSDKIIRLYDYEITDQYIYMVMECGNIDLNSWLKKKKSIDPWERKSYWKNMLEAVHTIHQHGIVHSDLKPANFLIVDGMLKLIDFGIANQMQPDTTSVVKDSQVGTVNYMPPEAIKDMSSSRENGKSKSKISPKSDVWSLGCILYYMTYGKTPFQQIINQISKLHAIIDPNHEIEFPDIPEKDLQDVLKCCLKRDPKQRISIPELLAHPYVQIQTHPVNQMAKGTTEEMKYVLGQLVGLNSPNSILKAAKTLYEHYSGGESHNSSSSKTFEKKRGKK

Compound: CNC(=O)c1cc(Oc2ccc(NC(=O)Nc3ccc(Cl)c(C(F)(F)F)c3)cc2)cc[n+]1[O-]
- per cent of control [1]: 20%
- per cent of control [2]: 100%
- per cent of control [3]: 100%
- per cent of control [4]: 9%
- per cent of control [5]: 52%
- per cent of control [6]: 11%
- per cent of control [7]: 100%
- per cent of control [8]: 100%
- per cent of control [9]: 100%
- per cent of control [10]: 0.55%
- per cent of control [11]: 97%
- per cent of control [12]: 86%
- per cent of control [13]: 6.4%
- per cent of control [14]: 14%
- per cent of control [15]: 0.05%
- per cent of control [16]: 44%
- per cent of control [17]: 100%
- per cent of control [18]: 8.7%
- per cent of control [19]: 100%
- per cent of control [20]: 100%
- per cent of control [21]: 1.8%
- per cent of control [22]: 95%
- per cent of control [23]: 0%
- per cent of control [24]: 98%
- per cent of control [25]: 81%
- per cent of control [26]: 100%
- per cent of control [27]: 100%
- per cent of control [28]: 0.1%
- per cent of control [29]: 82%
- per cent of control [30]: 4.7%
- per cent of control [31]: 100%
- per cent of control [32]: 85%
- per cent of control [33]: 86%
- per cent of control [34]: 71%
- per cent of control [35]: 100%
- per cent of control [36]: 100%
- per cent of control [37]: 0.05%
- per cent of control [38]: 86%
- per cent of control [39]: 15%
- per cent of control [40]: 100%
- per cent of control [41]: 0%

Compound: CNC(=O)c1cc(Oc2ccc(NC(=O)Nc3ccc(Cl)c(C(F)(F)F)c3)cc2)ccn1
- per cent of control [1]: 18%
- per cent of control [2]: 89%
- per cent of control [3]: 99%
- per cent of control [4]: 15%
- per cent of control [5]: 99%
- per cent of control [6]: 28%
- per cent of control [7]: 100%
- per cent of control [8]: 100%
- per cent of control [9]: 100%
- per cent of control [10]: 21%
- per cent of control [11]: 100%
- per cent of control [12]: 86%
- per cent of control [13]: 16%
- per cent of control [14]: 81%
- per cent of control [15]: 0%
- per cent of control [16]: 56%
- per cent of control [17]: 100%
- per cent of control [18]: 22%
- per cent of control [19]: 94%
- per cent of control [20]: 100%
- per cent of control [21]: 2.4%
- per cent of control [22]: 100%
- per cent of control [23]: 0%
- per cent of control [24]: 100%
- per cent of control [25]: 93%
- per cent of control [26]: 88%
- per cent of control [27]: 100%
- per cent of control [28]: 42%
- per cent of control [29]: 100%
- per cent of control [30]: 9%
- per cent of control [31]: 100%
- per cent of control [32]: 95%
- per cent of control [33]: 84%
- per cent of control [34]: 90%
- per cent of control [35]: 100%
- per cent of control [36]: 100%
- per cent of control [37]: 0.1%
- per cent of control [38]: 86%
- per cent of control [39]: 16%
- per cent of control [40]: 100%
- per cent of control [41]: 0%
